Experimental data published in patent US20090270594A1, “USE OF THYMOSIN ALPHA 1 FOR THE PREPARATION OF A MEDICAMENT FOR THE PREVENTION AND TREATMENT OF ALLERGIES” (SIGMA-TAU INDUSTRIE FARMACEUTICHE, priority 2006, published 2009).
Where no end group is shown, it is not given here.

Legend:
[1] = test system: mice with allergy from OVA; test: Allergy from OVA (chicken ovalbumin) model in mice; format: in vivo; conditions: FIG. 1B
Experimental: (§1) Evaluation of the efficacy of thymosin alpha 1 in two experimental models of allergy. A model consists of inducing an allergic state by administering chicken ovalbumin (OVA) in allergising conditions. The other consists of inducing the allergy from environmental allergens, and namely the spores of the fungus Aspergillus fumigatus.
The induction of the allergic pathology due to Aspergillus (called ABPA, Allergic Bronchopulmonary Aspergillosis) and to OVA was carried out as described in table 1 (Montagnoli C, Fallarino F, Gaziano R, Bozza S, Bellocchio S, Zelante T, Kurup W P, Pitzurra L, Puccetti P, Romani L. Immunity and tolerance to Aspergillus involve functionally distinct regulatory T cells and tryptophan catabolism. J. Immunol. 2006, 176:1712-1723). The mice received an intraperitoneal (i.p.) and subcutaneous (s.c.) injection of 5 μg of A. fumigatus culture filter (CCFA) dissolved in an incomplete Freund adjuvant (Sigma) followed by two consecutive intranasal injections (one week apart) of 20 μg CCFA. […] The mice were analysed for inflammation and allergy parameters a week later. […]
(§2) The collagen levels in the lungs were determined as described (Montagnoli C, Fallarino F, Gaziano R, Bozza S, Bellocchio S, Zelante T, Kurup WP, Pitzurra L, Puccetti P, Romani L. Immunity and tolerance to Aspergillus involve functionally distinct regulatory T cells and tryptophan catabolism. J. Immunol. 2006, 176:1712-1723). The concentrations of hydroxyproline were calculated by means of a standard hydroxyproline curve (zero to 100 μg/ml).
IgE determination in the serum. Total IgE in the serum samples was determined by enzyme-linked immunosorbent assay (Montagnoli C, Fallarino F, Gaziano R, Bozza S, Bellocchio S, Zelante T, Kurup WP, Ptzurra L, Puccetti P, Romani L. Immunity and tolerance to Aspergillus involve functionally distinct regulatory T cells and tryptophan catabolism. J. Immunol. 2006, 176:1712-1723 in the serum samples was measured by enzyme-linked immunosorbent assay). […]

[2] = test system: mice with ABPA (allergy to Aspergillus fumigatus); test: Allergic Bronchopulmonary Aspergillosis (ABPA) allergy model in mice; format: in vivo
Experimental: as §1
The induction of the allergic pathology due to Aspergillus (called ABPA, Allergic Bronchopulmonary Aspergillosis) and to OVA was carried out as described in table 1 (Montagnoli C, Fallarino F, Gaziano R, Bozza S, Bellocchio S, Zelante T, Kurup W P, Pitzurra L, Puccetti P, Romani L. Immunity and tolerance to Aspergillus involve functionally distinct regulatory T cells and tryptophan catabolism. J. Immunol. 2006, 176:1712-1723). The mice received an intraperitoneal (i.p.) and subcutaneous (s.c.) injection of 5 μg of A. fumigatus culture filter (CCFA) dissolved in an incomplete Freund adjuvant (Sigma) followed by two consecutive intranasal injections (one week apart) of 20 μg CCFA. One week after the last intranasal contact, the mice received 10^7 Aspergillus conidia intratracheally (i.t.) […]. The mice received 10 μg of OVA via i.p./s.c. on day 0, followed by two consecutive intranasal injections (one week apart) of 10 μg of OVA (chicken OVA grade VI; Sigma-Aldrich) together with 1 mg of Al(OH)3 (Alum Inject; Pierce, Rockford, Ill.) as adjuvant dissolved in a sterile saline solution. The mice were analysed for inflammation and allergy parameters a week later. For the histological analysis, sections (from 3 to 4 μm) of tissues immersed in paraffin were coloured with periodical Schiff acid (PAS) to evaluate the general morphology. The lung sections coloured with PAS were examined at 50, 200 and 400 enlargements to assess the “Globet” type cells typical of the allergy.
The differential total and total lung cell counts were carried out by colouring the lung of allergic mice with May-Grünwald reagents (Giemsa Sigma) before the analysis.
as §2
IgE determination in the serum. Total IgE in the serum samples was determined by enzyme-linked immunosorbent assay (Montagnoli C, Fallarino F, Gaziano R, Bozza S, Bellocchio S, Zelante T, Kurup WP, Ptzurra L, Puccetti P, Romani L. Immunity and tolerance to Aspergillus involve functionally distinct regulatory T cells and tryptophan catabolism. J. Immunol. 2006, 176:1712-1723 in the serum samples was measured by enzyme-linked immunosorbent assay).
Treatment with thymosin alpha 1. Tα1 (purchased from Sigma, St. Louis, Mo., USA; product no. T3410; molecular formula C129H215N33O55) and the scrambled peptide were supplied as sterile dried powders. The powders were reconstituted in sterile water (endotoxin levels were <0.03 pg/ml, by means of standard Limulus lysate assay). Tα1 was administered at a dosage of 50 and 200 microgrammes/kg i.p. according to the design reported in tables 1 and 2, both in the ABPA model and in the allergy from OVA. Mice controls received the scrambled peptide. In selected experiments, the mice were treated for comparison with a known agent that could improve the allergic symptomatology: oligodeoxynucleotide, containing non-methylated CpG (CpG) sequences.

[3] = Tα1 200 microgrammes i.p., both prophylaxis and therapy, vs control mice
[4] = FIG. 1A, Tα1 200 microgrammes i.p., both prophylaxis and therapy, vs control mice

thymosin alpha 1 (Ac-SDAAVDTSSEITTKDLKEKKEVVEEAEN; ends and bridges not checked; UniProt P06454 2-29, looked up) [Tα1, thymic peptide found in nature; purchased from Sigma, product no; T3410]
IgE antibodies [1, 3]: drastic reduction | local production of hydroxyproline [1, 3]: drastic reduction | reduction in allergic inflammatory parameters (hydroxyproline, IgE) at lower dosages ([1]; lower dosages (50 microgrammes/kg i.p.)): not at lower dosages | IgE antibodies [2, 4]: drastic reduction | local production of hydroxyproline [2, 4]: drastic reduction | reduction in allergic inflammatory parameters (hydroxyproline, IgE) at lower dosages ([2]; FIG. 1A, lower dosages (50 microgrammes/kg i.p.)): not at lower dosages | efficacy in reducing the allergic inflammation parameters, Tα1 compared with CpG ([2]; FIG. 2, both in prophylaxis and therapy): comparable efficacy | recruitment of monocytes/macrophages (pulmonary) ([2]; FIG. 3): did not have any appreciable effects | recruitment of neutrophils (pulmonary) ([2]; FIG. 3): did not have any appreciable effects | recruitment of eosinophils (pulmonary) ([2]; FIG. 3, both in prophylaxis and in therapy): drastic reduction | hyperplasia of submucose glandular (Globet) cells in pulmonary sections ([2]; FIG. 4, histology (PAS)): decreased hyperplasia | inflammatory infiltrate in pulmonary sections ([2]; FIG. 4, histology (PAS), prophylactic treatment): considerably reduced
